“Also recorded” adds a separate entry of the source. Where two headings read alike, the source gives them in different places.
Experiments:
[1] = system: embryonic rat cortical cells; test: Aβ toxicity assay, cell viability by MTT; type: cell-based; details: 5 μM Aβ + 10 μM inhibitor, 48 h; Aβ alone 73% (GW5074 experiment), 70% (ZM336372 experiment)
[2] = system: pNFκB/p65 (Ser276); test: Aβ-dependent NFκB/p65 phosphorylation at serine 276 in cortical cells, Western blot; type: cell-based, rat; details: 10 μM GW5074 + 5 μM Aβ, 48 h, in comparison to Aβ treated cells
[3] = system: embryonic rat cortical cells; test: Aβ toxicity assay, calcein-AM/propidium iodide staining; type: cell-based; details: 5 μM Aβ + 10 μM GW5074, 48 h
[4] = system: iNOS; test: iNOS levels in cortex of mice, Western blot; type: in vivo
From the text: (§1) FIGS. 5A-5E. […] NT, wild type age-matched control littermates.
(§2) Western blotting. […] (1:100) (GenScript Corporation, NJ, USA).

[5] = Kane et al. (2006); cited from earlier work
[6] = system: p-CREB[Ser 133]; test: CREB phosphorylated at Ser 133 in cortex, Western blot; type: in vivo; details: Tg mice, four months treatment, vs control Tg mice
From the text: as §2

[7] = system: PKA; test: PKA kinase activity ELISA in brain extracts of treated mice; details: Tg mice, four months treatment
[8] = system: APPswe (Tg) and NT mice; test: Cognitive interference task of working memory; type: in vivo
From the text: Interference test details. Cognitive Interference Task. This task involves two radial arm water maze set-ups in two different rooms, and different sets of visual cues. The task requires animals to remember a set of visual cues, so that following interference with a different set of cues, the initial set of cues can be recalled to successfully solve the radial arm water maze task. A set of […] behavioral measures were examined. Behavioral measures are: A1-A3 (Composite three-trial recall score from first 3 trials performed in RAWM “A”), “B” (proactive interference measure attained from a single trial in RAWM “B”), A4 (retroactive interference measure attained during a single trial in RAWM “A”), and “A5” (delayed-recall measure attained from a single trial in RAWM “A” following a 20 min delay between A4 and A5). As with the standard RAWM task, this interference task involves the platform location being changed daily to a different arm for both of the RAWM set-ups utilized, and different start arms for each day of testing for both RAWM set-ups. For A1 and B trials, the animal is initially allowed one minute to find the platform on their own before they are guided to the platform. Then the actual trial is performed in each case. As with the standard RAWM task, animals were given 60-s to find the escape platform, with the number of errors and escape latency recorded for each trial.
Cognitive interference task. This task involves two RAWM setups in two different rooms, and three different sets of visual cues. The task requires animals to remember a set of visual cues, so that following interference with a different set of cues, the initial set of cues can be recalled to successfully solve the RAWM task. A set of four behavioral measures was examined through six successive daily trials. Behavioral measures were A1-A3 (Composite three-trial recall score from first three trials performed in RAWM “A”), “B” (proactive interference measure attained from a single trial in RAWM “B”), A4 (retroactive interference measure attained during a single trial in RAWM “A”), and “A5” (delayed-recall measure attained from a single trial in RAWM “A” following a 20 min delay between A4 and A5). As with the standard RAWM task, this interference task involves the platform location being changed daily to a different arm for both of the RAWM setups utilized, and different start arms for each day of testing for both RAWM setups. For A1 and B trials, the animal is initially allowed 1 min to find the platform on its own before being guided to the platform. Then the actual trial is performed in each case. Also, between each trial, animals were placed into a Y-maze apparatus for 30 seconds as an inter-trial interfering experience. As with the standard RAWM task, animals were given 60 s to find the escape platform for each trial, with the number of errors and escape latency recorded for each trial.
For statistical analysis of RAWM data, the 8 days of pre-treatment testing (four 2-day blocks) or the 9 days of during-treatment testing (three 3-day blocks) were evaluated for individual blocks, as well as over all blocks, using one-way ANOVAs. Thereafter, post hoc pair-by-pair differences between groups were resolved with the Fisher LSD (least significant difference) test.

[9] = system: ppErk1/2; test: ppERK levels in cortex of mice, Western blot; type: in vivo
Experimental: FIGS. 4A-4C. […] After this time mice were sacrificed and the levels of pcRaf-1[Ser338] and pERK1/2 were analyzed by Western blot as described in Experimental Procedures. […] (n=5) (FIG. 4B) in the cortex than untreated Tg mice (n=4). The differences were significant for ppERKs, *P=0.016 and pcRaf-1[Ser338], *P=0.018. (FIG. 4C) Phosphorylation of cRaf-1 at Ser 259 and Ser 338. […] NT, wild-type age-matched control littermates.
as §2

[10] = system: PKA; details: cited from earlier work
[11] = system: Cox-2; test: Cox-2 levels in cortex of mice, Western blot; type: in vivo; details: for levels of Cox-2 vs control Tg mice: cortex, 20 mg/kg/day, four months
[12] = system: IκBα; test: IκBα levels in cortex of mice, Western blot; details: two months treatment
[13] = system: Aβ42; test: Total Aβ42 levels in cortex, ELISA; type: in vivo; details: Tg mice, ns vs Tg
Experimental: Determination of Aβ levels. The levels of Aβ1-40 and Aβ1-42 were quantified in the brain tissues by ELISA.
Total Aβ levels. Brain tissues were prepared by sonication of the samples in 5 M guanidine HCl, and 50 mM Tris-HCl. pH 8.0. After sonication, samples were incubated for 3 h at room temperature and centrifuged at 16,000×g for 20 min at 4° C. The supernatants were stored at −80° C. For analysis, the supernatants were diluted using PBS with 5% BSA and 0.03% Tween-20 supplemented with 1× protease inhibitor cocktail (Roche, USA) and further used to determine total Aβ levels using a commercial ELISA kit (Invitrogen, Carlsbad, Calif., USA), according to the manufacturer's recommendations.
Aβ levels represent the concentration of amyloid peptides in the cortex (A, C) and hippocampus (B, D) of the mice expressed as picogram by milligram (pg/mg) of brain tissue. Total peptide levels correspond to the levels found in the supernatant of cortical tissues homogenized in 5 M guanidinium chloride. Soluble Aβ levels correspond to the levels found in the supernatant of hippocampal tissues of the mice homogenized in the Triton-soluble fractions. ns, Not significant (P>0.05).

[14] = system: APPswe (Tg) and NT mice; type: in vivo; details: during treatment (20 mg/kg/day)
From the text: RAWM. For the RAWM task of spatial working memory (Arendash et al. (2001b); Arendash et al. (2007); Ethell et al. (2006)), an aluminum insert was placed into a 100 cm circular pool to create six radially distributed swim arms emanating from a central circular swim area (Arendash et al. (2001a); Ethell et al. (2006)). An assortment of 2-D and 3-D visual cues surrounded the pool. The number of errors prior to locating which one of the six swim arms contained a submerged escape platform (9 cm diameter) was determined in each of five trials every day. There was a 20-min time delay between the 4th trial (T4; final acquisition trial) and 5th trial (T5; memory retention trial). […] During each trial (60 s maximum), the mouse was returned to that trial's start arm upon swimming into an incorrect arm and the number of seconds required to locate the submerged platform was recorded. […]
For statistical analysis of RAWM data, the 8 days of pre-treatment testing (four 2-day blocks) or the 9 days of during-treatment testing (three 3-day blocks) were evaluated for individual blocks, as well as over all blocks, using one-way ANOVAs. […] One-way ANOVAs were employed for each of the four behavioral measures analyzed, followed by post hoc Fisher's LSD test to determine group differences. […]

[15] = system: pcRaf-1[Ser338]; test: pcRaf-1[Ser338] levels in cortex of mice, Western blot; type: in vivo; details: wild type NT mice
[16] = system: pNF-κB[Ser276]; test: pNF-κB[Ser276] levels in cortex of mice, Western blot; type: in vivo; details: for levels of pNF-κB[Ser276] vs control Tg mice: cortex, 20 mg/kg/day, four months
From the text: as §1, §2

[17] = system: Aβ40; test: Total Aβ40 levels in cortex, ELISA; type: in vivo; details: Tg mice, Study 2 (4 mo. treatment), ns vs Tg
[18] = wild type mice (data not shown)

O=C1Nc2ccc(I)cc2/C1=C/c1cc(Br)c(O)c(Br)c1 [GW5074, 5-iodo-3-[(3,5-dibromo-4-hydroxyphenyl)methy-lene]-2-indolinone]
cell survival, % of control levels (MTT) [1]: 93% | NFκB/p65 phosphorylation at serine 276 [2]: nine-fold decrease | number of PI stained cells after Aβ exposure [3]: decreased dramatically

CNC(=O)c1cc(Oc2ccc(NC(=O)Nc3ccc(Cl)c(C(F)(F)F)c3)cc2)ccn1 [Sorafenib, 4-(4-phenoxy)-N2-methylpyridine-2 carboxamide 4-methylbenzenesulfonate]
lower expression of iNOS than control Tg mice ([4]; Tg mice, cortex, 20 mg/kg/day, four months): 81% | iNOS levels vs untreated wild type mice [4, 18]: No differences | blood-brain barrier [5]: crosses the blood-brain barrier | CREB phosphorylation at Ser 133 in cortex [6]: significantly increased; also recorded: significantly higher | PKA activity in cortex [7]: restored PKA activity in Tg mice to values similar to those observed in NT mice | PKA activity in cortex ([7]; listed as sorafenib): comparable to NT mice | working memory in interference test vs vehicle-treated APPswe mice ([8]; APPswe mice, 2 months treatment, p<0.01): significant improvement in working memory | performance in any measure of cognitive interference testing, NT+sorafenib vs NT ([8]; NT mice): no differences in performance | 20-min delayed recall (A5), beneficial effects ([8]; Tg mice, final day of testing): not evident | three-trial recall (A1-A3) ([8]; Tg mice, final day of testing, errors and escape latency): performed identically to NT mice; also recorded: comparable to NT controls | three-trial recall (A1-A3) ([8]; Tg mice, first day of interference testing, compared to NT mice): impaired | 20-min delayed recall (A5) ([8]; Tg mice, first day of testing): significantly better and no different from NT mice; also recorded: much better delayed recall performance | proactive interference (B) ([8]; Tg mice, first day of testing): relatively high escape latency | proactive interference (B) ([8]; Tg mice, last day of testing): performed significantly better than Tg controls and identically to NT mice; also recorded: performed substantially better than Tg controls | retroactive interference (A4) ([8]; first and last day of testing): no effect of genotype or sorafenib treatment | decrease in levels of ppERK compared to control Tg mice ([9]; Tg mice, cortex, 20 mg/kg gavage, two months): 29% | ERK phosphorylation vs untreated NT mice ([9]; wild type NT mice): No changes | IC50 [10]: > 10 µM | levels of Cox-2 vs control Tg mice [11]: lower levels | levels of Cox-2 vs control Tg mice ([11]; listed as sorafenib): substantially lower levels | Cox-2 levels vs untreated wild type mice [11, 18]: No differences | higher levels of IκBα protein expression compared to control Tg mice [12]: 117% | Aβ42 total levels ([13]; Study 1 (2 mo. treatment)): 22,570 ± 5,946 ns, P = 0.4568 pg/mg | Aβ42 total levels ([13]; Study 2 (4 mo. treatment)): 71,980 ± 26,210 ns, P = 0.9914 pg/mg | T5 errors over all blocks of RAWM testing ([14]; NT mice, NT vehicle 0.9±0.4): 1.1±0.2 errors | T5 errors over all blocks of RAWM testing ([14]; Tg mice, Tg vehicle 1.9±0.3): 1.9±0.2 errors | cRaf-1 phosphorylation vs untreated NT mice [15]: No changes | levels of pNF-κB[Ser276] vs control Tg mice [16]: significantly lower levels | levels of pNF-κB[Ser276] vs control Tg mice ([16]; listed as sorafenib): significantly reduced | pNF-κB[Ser276] levels vs untreated wild type mice [16, 18]: No differences | Aβ40 total levels [17]: 36,140 ± 9.281 ns, P = 0.5193 pg/mg

Cc1ccc(NC(=O)c2cccc(N(C)C)c2)cc1NC(=O)c1ccc(O)cc1 [ZM336372, N-[5-(dimethyl-aminobenzamide)-2-methylphenyl]-4-hydroxybenzamide]
cell survival, % of control levels (MTT) [1]: 86%

— US20110243957A1, “MATERIALS AND METHODS FOR PREVENTING OR TREATING NEURODEGENERATIVE CONDITIONS ASSOCIATED WITH ABETA PEPTIDE ACCUMULATION” (University of South Florida, priority 2008, published 2011)
